Results reported in US20210244686A1, “Novel Systems And Methods For The Therapeutic Use of Cannabinoids or Cannabinoid Analogs to Increase The Lipid Order of Cholesterol Containing Cell Membranes” (The Regents of the University of Colorado a body corporate, priority 2018, published 2021).

Columns and labels:
SK-N-BE(2) cells [1] = experiment: Live cell confocal microscopy of NBD-cholesterol and lysotracker; type: cell-based, human; conditions: after 24 hours, only with NPC1 inhibitor U18666A and CBD 20 μM
From the text: One possible explanation for why CBD sensitizes cells to inhibitors of cholesterol trafficking and storage is that CBD increases the flux of cholesterol from the plasma membrane to the lysosome-ER transport pathway. When this flux is activated and hydroxy cholesterol is supplied in excess, the inability to efficiently store cholesterol may cause subcellular accumulation of cholesterol/hydroxycholesterol in organelles that normally maintain low cholesterol levels. To test this hypothesis, the inventor's repeated the live cell confocal microscopy experiments with SK-N-BE(2) cells stained with fluorescent cholesterol (NBD-cholesterol) and the lysosome dye lysotracker.
SK-N-BE(2) cells were seeded into fibronectin coated glass bottom 96 well plates (Matriplate) at a cell density of 40,000 cells/well using low background imaging media (FluoroBrite DMEM with all supplements described, above). At the time of seeding, nile red (ThermoFisher) was added at a final concentration of 100 ng/mL and NBD-cholesterol (ThermoFisher) was added at a final concentration of 10 μg/mL. […] Lipid droplets and their sizes were detected and quantified using the ImageJ Find Particles Function, and data was subsequently processed using Microsoft Excel. Error depicted represents the standard deviation calculated from three biological replicates. […]

SK-N-BE(2) cells [2] = experiment: Subcellular fractionation and LC-MS of CBD distribution; type: cell-based, human; conditions: 24 hrs
Method: In a metabolomics survey of SK-N-BE(2) cells exposed to CBD, the present inventors were able to determine that CBD is concentrated in insoluble components […]. As a result, the inventors designed and executed a subcellular fractionation method to isolate nuclear membrane, plasma membrane, and ER membrane fractions.
Extraction of cholesterol, precursors, free fatty acids, cholesteryl esters, and phospho lipids were performed in the following manner. SK-N-BE(2) cells in 10 cm dishes were washed with 10 mL PBS twice and then cells were scraped and pelleted at 400 rcf for 2 minutes. […]
Analytes were resolved over an ACQUITY HSS T3 column (2.1×150 mm, 1.8 μm particle size (Waters, Mass., USA) using an aqueous phase (A) of 25% acetonitrile and 5 mM ammonium acetate and a mobile phase (B) of 90% isopropanol, 10% acetonitrile and 5 mM ammonium acetate. The column was equilibrated at 30% B, and upon injection of […] of extract, samples were eluted from the column using the solvent gradient: 0-9 min 30-100% B and 0.325 mL/min; hold at 100% B for 3 min at 0.3 mL/min, and then decrease to 30% over 0.5 min at 0.4 ml/min, followed by a re-equilibration hold at 30% B for 2.5 minutes at 0.4 ml/min. […] Samples were analyzed in randomized order with a technical mixture injected incrementally to qualify instrument performance. […]

HaCaT cells = experiment: Live cell microscopy apoptosis assay (caspase 3/7 dye); conditions: increasing 25-hydroxy cholesterol, constant CBD
Method: (§1) To accurately measure cellular apoptosis over time, the present inventors performed live cell microscopy experiments with cells loaded with both DNA and caspase 3/7 dyes, which enables continuous and precise quantification of apoptosis at the single cell level.
(§2) Cell viability for SK-N-BE(2) cells was conducted using a fluorometric cell viability assay using Resazurin (PromoKine) according to the manufacturer's instructions. […] Dyes were added at the time of seeding, 18-24 hours prior to performing experiments.
(§3) Experiments were performed using an ImageXpress MicroXL microscope and a 10× objective, where images were acquired for each well at the indicated time-points using DAPI and FITC filter sets. […] Percent apoptotic cells was calculated from the sum of apoptotic cell pixels divided by the sum of all cell pixels for each field of view.

SK-N-BE(2) cells [3] = experiment: as above
Method: as §1, §2, §3

SMILES: C=C(C)[C@@H]1CCC(C)=C[C@H]1c1c(O)cc(CCCCC)cc1O [CBD, cannabidiol]
- fluorescent cholesterol in lysosomes (SK-N-BE(2) cells [1]): accumulates in labeled lysosomes
- CBD incorporated into ER and nuclear membranes (SK-N-BE(2) cells [2]): detectable amount
- sensitivity of CBD exposed cells to 25-hydroxy cholesterol induced apoptosis, relative to SK-N-BE(2) (HaCaT cells): more dramatically observed
- effect on DHA induced apoptosis (SK-N-BE(2) cells [3]; DHA 75 μM with MBCD 300 μM or CBD 6.25 μM): completely cancel the apoptotic effects
- sensitivity of CBD exposed cells to 25-hydroxy cholesterol induced apoptosis (SK-N-BE(2) cells [3]; increasing 25-hydroxy cholesterol, constant CBD): clear dose dependent sensitivity
